The values that follow come from patent US5098921A, “Nitro-substituted aromatic or hetero-aromatic compounds for use in cancer treatment” (National Research Development Corporation, priority 1987, dated 1992).

Molecules are shown by their SMILES. Where two headings read alike, the source gives them in different places.

In one data set the test system is KHT tumour cells. Nature of the data set: Survival of KHT tumour cells after sensitiser i.p. plus 10 Gy X-rays (KHT tumour implanted subcutaneously in C3H mice). The data set is classed as in vivo. How it is done:
In Table 2 comparison is made with 1-(2-nitro-1-imidazolyl)-3-(1-aziridino)-2-propanol (RSU-1069). All compounds were administered in phosphate buffered saline (PBS) at pH 7.4 except RB-6145 which was administered in PBS at pH 5.4.
The maximum does used was the maximum tolerated dose (MTD).

A short description of data set [1]: Toxicity to cells, 3 hours at 37° C., in air and in N2. The data set is classed as cell-based. Particulars: air; concentration required for a surviving fraction of 10^-1; 3 hours at 37° C.; full growth medium (bicarbonate); read-out: CAir. As for the experimental part: (§1) ^(a) Toxicity is 3 hours at 37° C. Concentrations are those
(§2) required for a surviving fraction of 10^-1. Drugs were made up in ful
(§3) growth medium (buffered with bicarbonate) just before addition to cells.

The test system of data set [2] is cells. The data set is described as above. The data set is classed as cell-based. To be noted: for CC90: read-out: CN2; for CAir/CN2: ratio of toxic concentrations, air to N2, 180 min. How it is done:
as §1, §2, §3

Data set [3] concerns cells. The experiment in a line: Sensitisation of cells, C1.6 (drugs made up in PBS at pH 7.4). Particulars: drugs made up in PBS at pH 7.4 just before addition to cells. The data set is classed as cell-based. The source says: ^(b) Drugs made up in PBS at pH 7.4 just before addition to cells.
A short description of data set [4]: Maximum tolerated dose (MTD). The data set is classed as in vivo, C3H mice. To be noted: for MTD: mouse, in vivo, ip, intraperitoneal, b203: maximum dose used was the MTD, read-out: maximum tolerated dose (MTD) = maximum dose used in Table 2. As for the experimental part: (§4) (a) C3H mice in which the KHT tumour had been implanted subcutaneously were administered RB-6145 (Example 2) intraperitoneally before treatment with radiation. The time before such treatment at which the drug was administered was such that maximum enhancement was effected. The results of such treatment are set out in Table 1 with comparison to misonidazole (MISO), etanidazole (SR 2508) and pimonidazole (Ro 03-8799). In Table 2 comparison is made with 1-(2-nitro-1-imidazolyl)-3-(1-aziridino)-2-propanol (RSU-1069). All compounds were administered in phosphate buffered saline (PBS) at pH 7.4 except RB-6145 which was administered in PBS at pH 5.4.
The surviving fraction for 10 Gy alone is 3×10^-2. The maximum does used was the maximum tolerated dose (MTD).

Another data set relates to KHT tumour. The experiment in a line: In vivo sensitisation, scored against RSU1069 and MISO. More on the design: species or system C3H mice; key to the marks not given beside the values. Particulars: scoring system relative to RSU1069 and MISO. As for the experimental part:
as §4

Setting [5] is: Table 1, sensitiser at a dose of 200 mg/kg and 10 Gy X-rays, NONE = 1.0.
Setting [6] is: Table 1, sensitiser at a dose of 200 mg/kg and 10 Gy X-rays, intraperitoneal.
The mark [7] stands for this setting: N2, concentration required for a surviving fraction of 10^-1, 3 hours at 37° C., full growth medium (bicarbonate).

As to `O=[N+]([O-])c1nccn1CC(O)CN1CCCCC1` (stereo not drawn) [Ro03-8799, pimonidazole], the enhancement ratio in the data set on KHT tumour cells (setting [5]) is given as 1.0. For the same compound, the surviving fraction with KHT tumour cells (setting [6]) was 3 × 10^-2.
For `O=C(Cn1ccnc1[N+](=O)[O-])NCCO` [SR 2508, etanidazole], the enhancement ratio in the data set on KHT tumour cells (setting [5]) turned out to be 1.6. In the data set on KHT tumour cells (setting [6]), the surviving fraction was 1.1 × 10^-2.
As for `O=[N+]([O-])c1nccn1CC(O)CNCCI` (stereo not drawn) [RB-6146, 1-(2-Nitro-1-imidazolyl)-3-(2-iodoethylamino)-2-propanol], the CC90 at 3 h in data set [1] came to 2.4 mM. Moreover, the CC90 with cells [2] (3 h) came to 80 µM. Also, in the data set on cells [2], the CAir/CN2 was 30. For the same compound, in the data set on cells [3], the EC (enhancement ratio 1.6) was found to be 300 µM.
The term MTD denotes the largest dose that counted as tolerated. Turning to `O=[N+]([O-])c1nccn1CC(O)CN1CC1` (stereo not drawn) [RSU-1069, 1-(2-nitro-1-imidazolyl)-3-(1-aziridino)-2-propanol], the surviving fraction was 7.6 × 10^-3 in the data set with KHT tumour cells (8 mg/kg), 4.0 × 10^-3 with KHT tumour cells (30 mg/kg), 3.2 × 10^-3 in the data set with KHT tumour cells (50 mg/kg) and 1.6 × 10^-3 in the data set on KHT tumour cells (80 mg/kg). Besides, the maximal tolerated dose (MTD) in data set [4] was 80 mg/kg.
Regarding `O=[N+]([O-])c1nccn1CC(O)CNCCO` (stereo not drawn) [RSU-1137, 1-(2-nitro-1-imidazolyl)-3-(2-hydroxyethylamino)-2-propanol, reference compound], in data set [1], the CC90 at 3 h is 70 mM. Moreover, the CC90 in the data set on cells [2] (setting [7]) is 3500 µM. In the data set on cells [2], the CAir/CN2 is recorded as 20. Moreover, the in vivo sensitisation result in the data set with KHT tumour is on record as “++”. The EC (enhancement ratio 1.6) with cells [3] came to 450 µM.
Take `COCC(O)Cn1ccnc1[N+](=O)[O-]` (stereo not drawn) [MISO, misonidazole]: the enhancement ratio with KHT tumour cells (mouse, in vivo, 200 mg/kg) was determined as 1.5. In the data set on KHT tumour cells (mouse, in vivo, ip, 200 mg/kg), the surviving fraction was 1.2 × 10^-2.
Consider `O=[N+]([O-])c1nccn1CC(O)CNCCBr` (stereo not drawn) [RB-6145, 1-(2-Nitro-1-imidazolyl)-3-(2-bromoethylamino)-2-propanol], for which, in the data set on KHT tumour cells (10 Gy X-rays), the “dose-for-dose sensitisation compared with RSU-1069” value is “on a dose-for-dose basis it is the same as RSU-1069 as a sensitiser”. Besides, in the data set with KHT tumour cells (setting [5]), the enhancement ratio was determined as 2.7. The surviving fraction in the data set with KHT tumour cells (setting [6]) is given as 1.8 × 10^-3; in the data set with KHT tumour cells (Table 2, RB-6145 0.13 mmol kg^-1 (50 mg/kg) and 10 Gy X-rays), 7.6 × 10^-3; in the data set on KHT tumour cells (Table 2, RB-6145 0.27 mmol kg^-1 (100 mg/kg) and 10 Gy X-rays), 5.2 × 10^-3; in the data set on KHT tumour cells (Table 2, RB-6145 0.53 mmol kg^-1 (200 mg/kg) and 10 Gy X-rays), 1.8 × 10^-3; in the data set on KHT tumour cells (Table 2, RB-6145 0.80 mmol kg^-1 (300 mg/kg) and 10 Gy X-rays, 10 Gy alone 3×10^-2) it was 1.4 × 10^-3. The CC90 at 3 h in data set [1] amounted to 2.3 mM. The CC90 in the data set with cells [2] (3 h) is 90 µM. For the same compound, in the data set with cells [2], the CAir/CN2 is 25. In addition, the in vivo sensitisation result with KHT tumour is given as “++++”. Moreover, the EC (enhancement ratio 1.6) in the data set with cells [3] is 150 µM. For the same compound, the “doses that can be used compared with RSU-1069” value in data set [4] (Table 2) is on record as “Much higher doses of RB-6145 can be used”. Moreover, the MTD in data set [4] came out at 300 mg/kg.
Take `O=[N+]([O-])c1nccn1CC(O)CNCCCl` (stereo not drawn) [RB-6144, 1-(2-Nitro-1-imidazolyl)-3-(2-chloroethylamino)-2-propanol]: the CC90 at 3 h in data set [1] came to 5 mM. The CC90 in the data set on cells [2] (3 h) is 350 µM. The CAir/CN2 with cells [2] is recorded as 15. In the data set on KHT tumour, the in vivo sensitisation result is on record as “++”. Besides, in the data set with cells [3], the EC (enhancement ratio 1.6) worked out at 250 µM.
Consider `O=[N+]([O-])c1nccn1CC(O)CNCCF` (stereo not drawn) [RB-6159, 1-(2-Nitro-1-imidazolyl)-3-(2-fluoroethylamino)-2-propanol], for which the CC90 at 3 h in data set [1] amounted to 35 mM. Also, the CC90 in the data set with cells [2] (setting [7]) came out at 2500 µM. Moreover, the CAir/CN2 in the data set with cells [2] is on record as 14.
